The values below come from ChEMBL document CHEMBL1146416, “A new glycoside antimicrobial agent from Persoonia linearis x pinifolia” (J Nat Prod, 1997).

Each structure is given as a SMILES string. Activity calls are given as the source filed them. The calls are words filed in the database; no cut-off is given here.

Common to all, as to format: functional, organism-based
One assay has as its system Escherichia coli. The assay is described as follows: Antimicrobial activity against Escherichia coli RSC2 at 6.25 ug/disk after 18 to 24 hrs.
For another assay, the system named is Phytophthora cinnamomi. The assay is described as follows: Antimicrobial activity against Phytophthora cinnamomi RSC290 at 6.25 ug/disk after 18 to 24 hrs.
The test system of a further assay is Bacillus subtilis. The assay is described as follows: Antimicrobial activity against Bacillus subtilis RSC1 at <12.5 ug/disk after 24 hrs.

As to `C=C(C(=O)OC[C@H]1O[C@@H](Oc2ccc(O)cc2)[C@H](O)[C@@H](O)[C@@H]1O)[C@@H](O)CO`, the outcome in the assay on Escherichia coli and in the assay on Phytophthora cinnamomi was Active. Besides, the result in the assay with Bacillus subtilis was inactive.
